Assay results as given in paper PMC5577134 (Nature Communications, 2017).
Values after ≈ are worked out from the molar mass of the structure shown. Like-named read-outs stand apart in the source and are kept apart here. Marks after values point to notes of the source that are not given here. *1 amine or outer side, *2 acyl side, *3 side chain or, on linkers, in order; H or OH if unused. Where a SMILES comes first, the peptide text is derived from it. [ ]: non-standard residue; d: D form. ξ: configuration not given here. Trp(1-(1,1-Me2-allyl)) = C=CC(C)(C)n1cc(C[C@H](N)C(=O)O)c2ccccc21; NMeGlu(4S-Me) = C[C@@H](C[C@@H](C(=O)[*:2])N(C)[*:1])C(=O)[*:3]; Tyr(3-NO2) = N[CH](Cc1ccc(O)c([N+](=O)[O-])c1)C(=O)O; X1 = CC(C)(C1CO1)n1cc(CC(N[*:1])C(=O)[*:2])c2ccccc21; X2 = CC(CC(C(=O)[*:2])N(C)[*:1])C(=O)O; Gly(E-crotyl) = C/C=C/C[C@H](N)C(=O)O; ξNle(4,5-dehydro) = CC=CCC(N)C(=O)O; NMeL = CN[CH](CC(C)C)C(=O)O

Key:
M. smegmatis MC^2 155 = assay: Antimycobacterial broth dilution MIC; type: cell-based, Mycobacterium smegmatis
Description: (§1) To determine the antibacterial activities of these eight compounds (1–8), a preliminary screening of their antibacterial activities against a panel of Gram-positive and Gram-negative bacteria[6]–[8], M. smegmatis MC^2 155 and M. tuberculosis H37Rv, was conducted using a broth dilution method, [59]. Compounds 1–8 were dissolved in dimethylsulfoxide (DMSO) to give 3200 μg mL^−1 stock solutions. The stock solutions were then serially diluted to concentrations of 0.0625–128 μg mL^−1 with MH broth or 7H9 broth (added with 0.2% glycerol, 0.05% Tween 80). DMSO in MH broth or 7H9 broth was used as a negative control, and broth-containing bacteria was used as positive control. All experiments were performed in triplicate with kanamycin and rifampicin as control agents.

[1] = test system: HeLa, human cervical carcinoma cell line; assay: MTT cytotoxicity; type: cell-based
Description: (§2) Compounds 1–8 were evaluated for cytotoxicity using HeLa, HepG2, A549, CNE2, and MCF7 cell lines using a previously reported MTT method. The L02 and Huvec-12 cell lines were used as normal cell line controls. All these cell lines were obtained from American Type Culture Collection (ATCC) and cultured according to ATCC recommendations. Cell lines were checked for mycoplasma and profiled via short tandem repeat profiling to confirm their identity by the supplier. All experiments were performed in triplicate with doxorubicin and cis-platinum as control agents.

[2] = test system: MCF7, human breast adenocarcinoma cell line; assay: MTT cytotoxicity; type: cell-based
Description: as §2

[3] = test system: HepG2, human hepatocellular carcinoma cell line; assay: MTT cytotoxicity; type: cell-based
Description: as §2

[4] = test system: A549, human lung cancer cell line; assay: MTT cytotoxicity; type: cell-based
Description: as §2

[5] = test system: CNE2, human nasopharyngeal carcinoma cell line; assay: MTT cytotoxicity; type: cell-based
Description: as §2

[6] = test system: Staphylococcus aureus ATCC29213; assay: Antibacterial broth dilution MIC; type: cell-based
Description: as §1

Micrococcus luteus SC-1 = assay: Antibacterial broth dilution MIC; type: cell-based
Description: as §1

[7] = test system: Acinetobacter baumanii ATCC19606; assay: Antibacterial broth dilution MIC; type: cell-based
Description: as §1

[8] = test system: Enterococcus faecalis ATCC29212; assay: Antibacterial broth dilution MIC; type: cell-based
Description: as §1

[9] = test system: Escherichia coli ATCC 25922; assay: Antibacterial broth dilution MIC; type: cell-based
Description: as §1

[10] = test system: L02, normal human hepatic cell line; assay: MTT cytotoxicity, normal cell line control; type: cell-based
Description: as §2

[11] = test system: Huvec-12, normal human umbilical vein endothelial cell line; assay: MTT cytotoxicity, normal cell line control; type: cell-based; conditions: Huvec-12 normal cell line
Description: as §2

MRSA shha-01 = assay: microbe, parasite or virus in culture; type: cell-based; conditions: Staphylococcus aureus
M. tuberculosis H37Rv = assay: Anti-TB broth dilution MIC; type: cell-based, Mycobacterium tuberculosis
[12] = test system: human tumor cell lines and normal human cell lines; assay: MTT cytotoxicity, summary over human tumor and normal cell lines; type: cell-based; conditions: HeLa, HepG2, and A549 cell lines, read-out: IC50 values, range over cell lines
Description: as §2

[13] = Mycolicibacterium smegmatis, MC^2155, read-out: MIC
[14] = Acinetobacter baumannii, ATCC19606
[15] = Mycobacterium tuberculosis, H37RV, broth dilution, triplicate, n = 3

SMILES | MIC (M. smegmatis MC^2 155; [13]) | IC50 ([1]; Homo sapiens) | IC50 ([2]; Homo sapiens) | IC50 ([3]; Homo sapiens) | IC50 ([4]; Homo sapiens) | IC50 ([5]; Homo sapiens, CNE-2) | MIC [6] | MIC (Micrococcus luteus SC-1; SC1) | MIC [7, 14] | MIC [8] | MIC ([9]; ATCC25922) | IC50 ([10]; Homo sapiens) | IC50 ([11]; Homo sapiens, Endothelial cell) | MIC (MRSA shha-01) | MIC (M. tuberculosis H37Rv; [15]) | other results
C=CC(C)(C)n1cc(C[C@@H]2NC(=O)[C@H](C/C=C/C)NC(=O)[C@H](CC(C)C)NC(=O)[C@H](C[C@H](C)C(=O)O)N(C)C(=O)[C@H](C)NC(=O)[C@H](Cc3ccc(O)c([N+](=O)[O-])c3)NC(=O)[C@H](CC(C)C)N(C)C2=O)c2ccccc21 [compound 8, ilamycin F] (cyclo(A[NMeGlu(4S-Me)]L[Gly(E-crotyl)][Trp(1-(1,1-Me2-allyl))][NMeL][Tyr(3-NO2)])) | 30.7 µM (≈ 32 µg/mL) | > 50 µM | > 50 µM | > 50 µM | > 50 µM | > 50 µM | > 123 µM | > 123 µM | 123 µM (≈ 128 µg/mL) | > 123 µM | > 123 µM | > 50 µM | > 50 µM | > 123 µM | 1.2 µM (≈ 1.25 µg/mL) | 
CC=CCC1NC(=O)C(CC(C)C)N2C(=O)C(CC(C)C2O)N(C)C(=O)C(C)NC(=O)C(Cc2ccc(O)c([N+](=O)[O-])c2)NC(=O)C(CC(C)C)N(C)C(=O)C(Cc2cn(C(C)(C)C3CO3)c3ccccc23)NC1=O (stereo not shown) [3/4] | 0.12 µM (≈ 0.125 µg/mL) | 3.3 µM | 4.5 µM | 3.2 µM | 3.5 µM | 6.8 µM | > 123 µM | > 123 µM | 123 µM (≈ 128 µg/mL) | > 123 µM | > 123 µM | 7.4 µM | 33.8 µM | > 123 µM | 9.6 µM (≈ 10 µg/mL) | IC50 [12]: 3.2 to 6.2 µM
NC[C@H]1O[C@H](O[C@H]2[C@H](O)[C@@H](O[C@H]3O[C@H](CO)[C@@H](O)[C@H](N)[C@H]3O)[C@H](N)C[C@@H]2N)[C@H](O)[C@@H](O)[C@@H]1O [Kanamycin, reference compound] |  |  |  |  |  |  | 0.85 µM (≈ 0.412 µg/mL) |  |  |  |  |  |  |  |  | MIC (M. smegmatis MC^2 155): 1.7^a μM; MIC (Micrococcus luteus SC-1): 0.85 µM (≈ 0.412 µg/mL); MIC ([7]; Acinetobacter baumanii ATCC19606): 3.4 µM (≈ 1.65 µg/mL); MIC [9]: 1.7 µM (≈ 0.824 µg/mL)
C=CC(C)(C)n1cc(C[C@@H]2NC(=O)[C@H](C/C=C/C)NC(=O)[C@H](CC(C)C)NC(=O)[C@H](CC(C)C)N(C)C(=O)[C@H](C)NC(=O)[C@H](Cc3ccc(O)c([N+](=O)[O-])c3)NC(=O)[C@H](CC(C)C)N(C)C2=O)c2ccccc21 [compound 1, ilamycin B1] (cyclo(A[NMeL]L[Gly(E-crotyl)][Trp(1-(1,1-Me2-allyl))][NMeL][Tyr(3-NO2)])) | > 126 µM | > 50 µM | > 50 µM | > 50 µM | > 50 µM | > 50 µM | > 126 µM | > 126 µM | 126 µM (≈ 128 µg/mL) | > 126 µM | > 126 µM | > 50 µM | > 50 µM | > 126 µM | 98.9 µM (≈ 100 µg/mL) | 
CC=CCC1NC(=O)C(CC(C)C)NC(=O)C(CC(C)C)N(C)C(=O)C(C)NC(=O)C(Cc2ccc(O)c([N+](=O)[O-])c2)NC(=O)C(CC(C)C)N(C)C(=O)C(Cc2cn(C(C)(C)C3CO3)c3ccccc23)NC1=O (stereo not shown) [compound 2, ilamycin B2] (cyclo([ξNle(4,5-dehydro)][X1][NMeL][Tyr(3-NO2)]A[NMeL]L); configuration not given here) | > 124 µM | 7.1 µM | 17.4 µM | 8.9 µM | 13.8 µM | 24.5 µM | > 124 µM | > 124 µM | 124 µM (≈ 128 µg/mL) | > 124 µM | > 124 µM | 24.6 µM | 18.6 µM | > 124 µM | 2.4 µM (≈ 2.47 µg/mL) | 
N.N.[Cl][Pt][Cl] [Cis, Cisplatin, reference compound] |  |  |  |  |  |  |  |  |  |  |  |  |  |  |  | IC50 [1]: 5.2 µM; IC50 [2]: 14.1 µM; IC50 [3]: 2.5 µM; IC50 [4]: 9.3 µM; IC50 [5]: 12.9 µM; IC50 [10]: 22.7 µM; IC50 [11]: 34.5 µM
CO[C@H]1/C=C/O[C@@]2(C)Oc3c(C)c(O)c4c(O)c(c(/C=N/N5CCN(C)CC5)c(O)c4c3C2=O)NC(=O)/C(C)=C\C=C\[C@H](C)[C@H](O)[C@@H](C)[C@@H](O)[C@@H](C)[C@H](OC(C)=O)[C@@H]1C [Rif, Rifampin, reference compound] |  |  |  |  |  |  |  |  |  |  |  |  |  |  |  | MIC (M. tuberculosis H37Rv; Mycobacterium tuberculosis, H37RV, broth dilution, triplicate, n = 3, read-out: MIC): 0.3 µM (≈ 0.247 µg/mL)
COc1cccc2c1C(=O)c1c(O)c3c(c(O)c1C2=O)C[C@@](O)(C(=O)CO)C[C@@H]3O[C@H]1C[C@H](N)[C@H](O)[C@H](C)O1 [Dox, Doxorubicin, reference compound] |  | 0.98 µM | 3.4 µM | 1.2 µM | 3.4 µM | 3.6 µM |  |  |  |  |  | 13 µM | 34.3 µM |  |  | 
C=CC(C)(C)n1cc(C[C@@H]2NC(=O)[C@H](C/C=C/C)NC(=O)[C@H](CC(C)C)N3C(=O)[C@H](C[C@H](C)C3O)N(C)C(=O)[C@H](C)NC(=O)[C@H](Cc3ccc(O)c([N+](=O)[O-])c3)NC(=O)[C@H](CC(C)C)N(C)C2=O)c2ccccc21 (stereo partly shown) [6/7] | 30.7 µM (≈ 31.5 µg/mL) | 3.9 µM | 3.9 µM | 4.9 µM | 6.2 µM | 14.9 µM | > 125 µM | > 125 µM | 125 µM (≈ 128 µg/mL) | > 125 µM | > 125 µM | 14.9 µM | 18.6 µM | > 125 µM | 0.0098 µM (≈ 0.0101 µg/mL) | IC50 [12]: 3.2 to 6.2 µM; fold superior to positive control rifampin (MIC) (M. tuberculosis H37Rv): 30 fold; MIC (M. tuberculosis H37Rv; Mycobacterium tuberculosis, H37RV): ~0.0098 µM (≈ 0.0101 µg/mL); MIC (M. tuberculosis H37Rv; read-out: MIC): 0.0098 µM (≈ 0.0101 µg/mL)
CC=CCC1NC(=O)C(CC(C)C)NC(=O)C(CC(C)C(=O)O)N(C)C(=O)C(C)NC(=O)C(Cc2ccc(O)c([N+](=O)[O-])c2)NC(=O)C(CC(C)C)N(C)C(=O)C(Cc2cn(C(C)(C)C3CO3)c3ccccc23)NC1=O (stereo not shown) [compound 5, ilamycin D] (cyclo([X2]L[ξNle(4,5-dehydro)][X1][NMeL][Tyr(3-NO2)]A); configuration not given here) | 30.3 µM (≈ 32.1 µg/mL) | > 50 µM | > 50 µM | > 50 µM | > 50 µM | > 50 µM | > 121 µM | > 121 µM | 121 µM (≈ 128 µg/mL) | > 121 µM | > 121 µM | > 50 µM | > 50 µM | > 121 µM | 1.2 µM (≈ 1.27 µg/mL) | 
